In ChEMBL document CHEMBL4507268 (2021):

Key:
Settings in all cases: Compound concentration 1000.0 nM
[1] = target: Myosin light chain kinase 2, skeletal/cardiac muscle (Homo sapiens) (UniProt Q9H1R3)
[2] = target: T1, Myosin light chain kinase (Homo sapiens) (UniProt Q32MK0)
T1 sequence (whole entry): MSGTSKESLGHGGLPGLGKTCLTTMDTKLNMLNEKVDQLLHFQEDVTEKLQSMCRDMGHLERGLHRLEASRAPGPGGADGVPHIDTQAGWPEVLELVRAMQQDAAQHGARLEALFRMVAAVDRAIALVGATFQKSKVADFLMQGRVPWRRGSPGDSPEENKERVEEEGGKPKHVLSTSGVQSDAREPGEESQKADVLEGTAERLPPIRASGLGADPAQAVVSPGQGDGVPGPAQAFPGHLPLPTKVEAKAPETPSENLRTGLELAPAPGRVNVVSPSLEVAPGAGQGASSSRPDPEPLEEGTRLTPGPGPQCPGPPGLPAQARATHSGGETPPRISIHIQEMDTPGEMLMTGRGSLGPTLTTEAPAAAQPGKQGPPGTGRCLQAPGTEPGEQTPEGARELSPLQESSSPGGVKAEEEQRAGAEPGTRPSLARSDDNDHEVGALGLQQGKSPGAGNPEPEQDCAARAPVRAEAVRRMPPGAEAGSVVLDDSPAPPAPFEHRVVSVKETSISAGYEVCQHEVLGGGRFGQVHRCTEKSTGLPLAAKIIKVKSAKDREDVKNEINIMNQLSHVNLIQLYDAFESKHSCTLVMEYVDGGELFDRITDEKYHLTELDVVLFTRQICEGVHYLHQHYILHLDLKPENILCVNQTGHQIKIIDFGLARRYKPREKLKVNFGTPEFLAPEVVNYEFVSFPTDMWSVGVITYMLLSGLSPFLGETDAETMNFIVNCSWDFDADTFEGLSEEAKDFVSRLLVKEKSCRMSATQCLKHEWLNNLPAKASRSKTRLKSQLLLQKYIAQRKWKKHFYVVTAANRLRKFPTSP

[3] = target: Casein kinase I isoform gamma-3 (Homo sapiens) (UniProt Q9Y6M4)
Chain of Casein kinase I isoform gamma-3 (Homo sapiens) (Q9Y6M4 whole entry, looked up, canonical isoform): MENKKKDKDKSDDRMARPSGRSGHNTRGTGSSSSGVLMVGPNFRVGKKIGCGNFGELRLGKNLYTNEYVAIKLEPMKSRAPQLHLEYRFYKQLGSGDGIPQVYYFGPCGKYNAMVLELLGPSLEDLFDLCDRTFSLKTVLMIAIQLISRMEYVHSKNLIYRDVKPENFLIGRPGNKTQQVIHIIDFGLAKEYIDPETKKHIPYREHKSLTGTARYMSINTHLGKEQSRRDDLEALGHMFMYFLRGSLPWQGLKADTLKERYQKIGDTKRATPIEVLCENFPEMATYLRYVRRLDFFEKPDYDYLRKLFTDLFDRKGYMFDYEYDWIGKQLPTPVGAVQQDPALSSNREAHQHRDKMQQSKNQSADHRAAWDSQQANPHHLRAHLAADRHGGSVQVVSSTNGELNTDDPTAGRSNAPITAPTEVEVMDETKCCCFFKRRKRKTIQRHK

[4] = target: T2, Mitogen-activated protein kinase 12 (Homo sapiens) (UniProt P53778)
T2 sequence (whole entry): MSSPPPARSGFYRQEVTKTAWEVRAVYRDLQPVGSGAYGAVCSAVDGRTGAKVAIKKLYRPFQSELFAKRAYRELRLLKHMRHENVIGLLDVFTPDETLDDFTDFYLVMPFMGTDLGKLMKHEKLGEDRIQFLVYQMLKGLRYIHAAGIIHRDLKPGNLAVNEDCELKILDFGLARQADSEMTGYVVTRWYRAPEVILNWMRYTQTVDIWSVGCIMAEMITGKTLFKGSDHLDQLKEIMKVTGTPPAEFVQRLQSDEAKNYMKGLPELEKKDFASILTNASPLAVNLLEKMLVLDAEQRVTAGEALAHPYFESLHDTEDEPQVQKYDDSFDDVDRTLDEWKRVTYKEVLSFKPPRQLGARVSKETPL

[5] = target: Homeodomain-interacting protein kinase 3 (Homo sapiens) (UniProt Q9H422)
Chain of Homeodomain-interacting protein kinase 3 (Homo sapiens) (Q9H422 whole entry, looked up): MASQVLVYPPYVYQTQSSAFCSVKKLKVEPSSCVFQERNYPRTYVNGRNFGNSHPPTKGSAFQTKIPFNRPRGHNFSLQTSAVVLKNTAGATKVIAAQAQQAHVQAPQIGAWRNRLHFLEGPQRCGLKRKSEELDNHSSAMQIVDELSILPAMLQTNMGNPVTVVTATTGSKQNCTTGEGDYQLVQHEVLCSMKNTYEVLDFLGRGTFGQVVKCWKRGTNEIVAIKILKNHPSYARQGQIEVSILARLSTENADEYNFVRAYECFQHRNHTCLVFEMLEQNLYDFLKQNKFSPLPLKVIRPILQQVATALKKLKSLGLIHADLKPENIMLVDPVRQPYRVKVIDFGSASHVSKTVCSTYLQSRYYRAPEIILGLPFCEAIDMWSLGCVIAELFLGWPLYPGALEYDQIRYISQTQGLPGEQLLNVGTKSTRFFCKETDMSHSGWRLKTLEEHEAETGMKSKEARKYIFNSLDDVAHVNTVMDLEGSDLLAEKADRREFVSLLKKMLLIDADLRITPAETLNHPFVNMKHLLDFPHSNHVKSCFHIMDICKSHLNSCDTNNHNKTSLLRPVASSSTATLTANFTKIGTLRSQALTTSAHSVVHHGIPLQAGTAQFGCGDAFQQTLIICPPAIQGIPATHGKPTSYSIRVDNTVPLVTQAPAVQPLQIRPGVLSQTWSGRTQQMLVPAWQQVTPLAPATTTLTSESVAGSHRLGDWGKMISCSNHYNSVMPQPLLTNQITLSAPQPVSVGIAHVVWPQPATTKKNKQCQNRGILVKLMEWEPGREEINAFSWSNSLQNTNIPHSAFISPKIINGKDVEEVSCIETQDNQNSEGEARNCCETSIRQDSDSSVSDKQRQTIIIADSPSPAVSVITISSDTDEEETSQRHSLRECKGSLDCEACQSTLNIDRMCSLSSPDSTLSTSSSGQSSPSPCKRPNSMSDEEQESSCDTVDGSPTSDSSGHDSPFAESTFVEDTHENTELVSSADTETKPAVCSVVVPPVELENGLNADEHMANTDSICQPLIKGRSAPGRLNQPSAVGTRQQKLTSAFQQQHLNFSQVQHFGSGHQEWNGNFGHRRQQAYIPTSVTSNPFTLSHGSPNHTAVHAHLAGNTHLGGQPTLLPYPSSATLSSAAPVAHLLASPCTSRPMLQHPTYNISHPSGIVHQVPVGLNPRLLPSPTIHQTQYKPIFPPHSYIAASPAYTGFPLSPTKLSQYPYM

[6] = target: Tyrosine-protein kinase SYK (Homo sapiens) (UniProt P43405)
[7] = target: Mitogen-activated protein kinase kinase kinase 20 (Homo sapiens) (UniProt Q9NYL2)
[8] = target: Serine/threonine-protein kinase WNK3 (Homo sapiens) (UniProt Q9BYP7)
Chain of Serine/threonine-protein kinase WNK3 (Homo sapiens) (Q9BYP7 whole entry): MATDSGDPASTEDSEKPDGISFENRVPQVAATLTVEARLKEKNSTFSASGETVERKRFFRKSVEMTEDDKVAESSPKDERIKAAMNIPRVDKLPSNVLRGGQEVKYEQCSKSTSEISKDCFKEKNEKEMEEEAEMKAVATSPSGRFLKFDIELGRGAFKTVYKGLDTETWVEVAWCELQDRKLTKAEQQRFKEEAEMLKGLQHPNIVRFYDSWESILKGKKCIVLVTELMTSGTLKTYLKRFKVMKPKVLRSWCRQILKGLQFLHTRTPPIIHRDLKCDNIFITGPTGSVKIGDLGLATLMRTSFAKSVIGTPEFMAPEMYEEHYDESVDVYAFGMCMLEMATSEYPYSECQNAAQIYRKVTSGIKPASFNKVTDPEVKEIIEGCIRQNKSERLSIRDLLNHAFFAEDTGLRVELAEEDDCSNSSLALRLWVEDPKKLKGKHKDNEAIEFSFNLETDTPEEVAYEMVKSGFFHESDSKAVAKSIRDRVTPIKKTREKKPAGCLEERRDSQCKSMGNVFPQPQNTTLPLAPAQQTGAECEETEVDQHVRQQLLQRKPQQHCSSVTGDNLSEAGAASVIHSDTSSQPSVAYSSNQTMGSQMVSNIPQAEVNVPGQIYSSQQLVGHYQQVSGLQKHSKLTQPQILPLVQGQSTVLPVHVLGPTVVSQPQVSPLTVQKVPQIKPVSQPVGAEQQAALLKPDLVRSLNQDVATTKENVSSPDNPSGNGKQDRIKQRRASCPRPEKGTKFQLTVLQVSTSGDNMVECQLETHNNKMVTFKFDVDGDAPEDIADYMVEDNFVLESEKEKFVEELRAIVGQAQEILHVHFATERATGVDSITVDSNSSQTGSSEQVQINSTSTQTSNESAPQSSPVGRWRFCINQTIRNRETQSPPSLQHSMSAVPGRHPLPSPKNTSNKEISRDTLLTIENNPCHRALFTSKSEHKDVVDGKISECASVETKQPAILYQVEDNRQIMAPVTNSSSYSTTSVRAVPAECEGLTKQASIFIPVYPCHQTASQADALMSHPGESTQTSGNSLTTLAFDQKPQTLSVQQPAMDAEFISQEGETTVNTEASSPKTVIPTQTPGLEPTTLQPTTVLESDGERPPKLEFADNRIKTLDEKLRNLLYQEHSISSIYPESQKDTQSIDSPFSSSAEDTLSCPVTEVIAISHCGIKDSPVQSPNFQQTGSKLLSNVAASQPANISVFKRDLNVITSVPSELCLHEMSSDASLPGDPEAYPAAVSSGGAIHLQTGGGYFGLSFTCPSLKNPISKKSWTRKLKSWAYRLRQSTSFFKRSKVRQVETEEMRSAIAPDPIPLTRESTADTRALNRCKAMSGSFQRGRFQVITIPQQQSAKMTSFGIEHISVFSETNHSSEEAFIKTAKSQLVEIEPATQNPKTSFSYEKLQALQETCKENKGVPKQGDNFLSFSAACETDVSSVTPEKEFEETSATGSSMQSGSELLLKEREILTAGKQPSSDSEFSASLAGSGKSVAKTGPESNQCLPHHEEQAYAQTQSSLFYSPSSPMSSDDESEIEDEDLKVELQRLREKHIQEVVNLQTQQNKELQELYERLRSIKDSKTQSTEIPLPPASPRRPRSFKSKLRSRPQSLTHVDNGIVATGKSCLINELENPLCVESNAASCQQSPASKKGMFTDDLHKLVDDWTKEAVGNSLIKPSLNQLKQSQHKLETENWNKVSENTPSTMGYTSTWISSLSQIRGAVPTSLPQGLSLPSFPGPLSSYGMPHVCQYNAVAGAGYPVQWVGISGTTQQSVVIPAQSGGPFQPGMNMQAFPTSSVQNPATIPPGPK

[9] = target: Cyclin-dependent kinase 11A (Homo sapiens) (UniProt Q9UQ88)
Chain of Cyclin-dependent kinase 11A (Homo sapiens) (Q9UQ88 whole entry): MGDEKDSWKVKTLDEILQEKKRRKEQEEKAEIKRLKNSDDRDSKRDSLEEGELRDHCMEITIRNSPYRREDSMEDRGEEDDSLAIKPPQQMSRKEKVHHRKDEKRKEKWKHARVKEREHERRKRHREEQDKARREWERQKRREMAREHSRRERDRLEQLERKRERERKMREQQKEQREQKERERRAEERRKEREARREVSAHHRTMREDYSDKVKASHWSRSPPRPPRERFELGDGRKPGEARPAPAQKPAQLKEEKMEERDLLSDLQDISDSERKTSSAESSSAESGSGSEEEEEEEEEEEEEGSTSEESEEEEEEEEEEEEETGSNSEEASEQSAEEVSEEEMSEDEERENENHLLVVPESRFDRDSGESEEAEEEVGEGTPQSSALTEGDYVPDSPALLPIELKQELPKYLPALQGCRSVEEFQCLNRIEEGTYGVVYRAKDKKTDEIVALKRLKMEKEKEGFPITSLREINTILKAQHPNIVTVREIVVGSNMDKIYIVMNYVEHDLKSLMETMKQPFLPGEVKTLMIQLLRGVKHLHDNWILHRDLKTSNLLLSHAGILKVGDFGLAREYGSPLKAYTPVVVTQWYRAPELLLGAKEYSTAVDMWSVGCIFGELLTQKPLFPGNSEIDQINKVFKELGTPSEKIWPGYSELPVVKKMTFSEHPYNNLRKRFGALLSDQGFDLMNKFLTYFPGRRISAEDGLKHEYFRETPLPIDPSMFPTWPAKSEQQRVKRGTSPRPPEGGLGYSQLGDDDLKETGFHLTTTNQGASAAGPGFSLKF

[10] = test system: Mast/stem cell growth factor receptor Kit (Homo sapiens), P10721 [L576P]
[11] = target: Mitogen-activated protein kinase kinase kinase kinase 5 (Homo sapiens) (UniProt Q9Y4K4)
[12] = target: T3, Serine/threonine-protein kinase D3 (Homo sapiens) (UniProt O94806)
T3 sequence (whole entry): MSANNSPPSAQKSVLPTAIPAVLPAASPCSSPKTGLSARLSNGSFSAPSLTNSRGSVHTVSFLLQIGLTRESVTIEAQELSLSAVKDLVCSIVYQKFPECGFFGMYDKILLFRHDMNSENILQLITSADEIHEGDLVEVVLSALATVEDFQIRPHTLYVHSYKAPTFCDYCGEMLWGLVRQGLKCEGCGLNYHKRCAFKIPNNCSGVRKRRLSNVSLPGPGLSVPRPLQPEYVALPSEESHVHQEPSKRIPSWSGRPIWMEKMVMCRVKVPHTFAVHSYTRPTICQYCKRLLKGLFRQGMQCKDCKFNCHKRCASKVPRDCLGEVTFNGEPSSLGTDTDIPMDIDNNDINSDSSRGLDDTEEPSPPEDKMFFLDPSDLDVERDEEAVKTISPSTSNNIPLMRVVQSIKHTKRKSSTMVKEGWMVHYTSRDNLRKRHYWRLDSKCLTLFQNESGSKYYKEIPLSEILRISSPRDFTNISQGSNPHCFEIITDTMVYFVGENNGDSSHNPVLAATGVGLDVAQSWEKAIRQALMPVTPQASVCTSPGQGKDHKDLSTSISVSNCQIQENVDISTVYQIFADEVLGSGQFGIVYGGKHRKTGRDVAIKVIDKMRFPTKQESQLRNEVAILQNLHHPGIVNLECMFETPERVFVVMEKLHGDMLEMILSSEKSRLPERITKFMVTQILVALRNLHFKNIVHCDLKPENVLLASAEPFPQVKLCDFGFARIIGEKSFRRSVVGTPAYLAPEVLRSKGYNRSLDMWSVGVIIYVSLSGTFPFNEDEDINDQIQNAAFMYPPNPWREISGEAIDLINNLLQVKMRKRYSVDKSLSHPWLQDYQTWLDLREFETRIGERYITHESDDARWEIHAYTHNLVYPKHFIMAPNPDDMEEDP

Measured: residual activity

Chain of Myosin light chain kinase 2, skeletal/cardiac muscle (Homo sapiens) (Q9H1R3 whole entry): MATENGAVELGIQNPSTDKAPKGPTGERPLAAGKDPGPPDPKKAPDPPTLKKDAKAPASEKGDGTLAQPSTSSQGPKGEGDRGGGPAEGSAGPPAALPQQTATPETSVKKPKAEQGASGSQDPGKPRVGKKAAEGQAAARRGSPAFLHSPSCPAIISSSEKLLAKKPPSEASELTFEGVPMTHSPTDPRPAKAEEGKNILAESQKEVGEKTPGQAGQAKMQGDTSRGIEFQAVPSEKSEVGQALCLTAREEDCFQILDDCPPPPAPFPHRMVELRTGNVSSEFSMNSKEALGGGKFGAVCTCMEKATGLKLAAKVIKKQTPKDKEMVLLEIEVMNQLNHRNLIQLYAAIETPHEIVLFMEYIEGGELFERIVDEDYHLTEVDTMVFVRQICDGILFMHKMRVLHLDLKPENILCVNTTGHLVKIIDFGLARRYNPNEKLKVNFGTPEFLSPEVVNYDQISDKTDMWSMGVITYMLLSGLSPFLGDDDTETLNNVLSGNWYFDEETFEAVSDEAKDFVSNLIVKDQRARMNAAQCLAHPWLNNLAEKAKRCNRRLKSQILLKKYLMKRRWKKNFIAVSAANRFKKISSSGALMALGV

Cc1nc(C2CCN(C(=O)c3ccc(OC(F)(F)F)cc3N)CC2)c2ncc(N3CCN(C)CC3)cc2n1 [BAY-693]
inactive: [1] 87% | [2] 100% | [3] 100% | [4] 100% | [5] 96% | [6] 98% | [7] 95% | [8] 94% | [9] 100% | [10] 87% | [11] 100% | [12] 100%

CN1CCN(c2cnc3c(C4CCN(C(=O)c5ccc(OC(F)(F)F)cc5N)CC4)ncnc3c2)CC1 [BAY-885]
inactive: [1] 85% | [2] 82% | [3] 100% | [4] 83% | [5] 100% | [6] 100% | [7] 98% | [8] 100% | [9] 61% | [10] 95% | [11] 99% | [12] 100%
